Laboratory results: ChEMBL document CHEMBL6121055, “Strategic Mutations in Designer Native Peptides Combat NLRP3 Inflammasome Activation in Neurodegenerative Disorders” (J Med Chem, 2025)
Calls of active or inactive are those of the source. The rule behind the calls is not given here. Residues, ends and D or L forms follow the SMILES beside them.

Legend:
[1] = biological target: Apoptosis-associated speck-like protein containing a CARD (Homo sapiens, UniProt Q9ULZ3); experiment: Binding affinity to Alexa647-labeled ASC (unknown origin) assessed as dissociation constant incubated for 5 mins by fluorescence spectra based analysis
[2] = system: N9; experiment: Inhibition of NLRP3 inflammasome activation mediated in LPS/tau-stimulated mouse N9 cells assessed as increase in mitochondrial membrane potential by flow cytometric analysis; assay type: cell-based; details: dose 5-30 µM
[3] = system: N9; experiment: Inhibition of NLRP3 inflammasome activation mediated pyroptosis in LPS/ATP-stimulated mouse N9 cells assessed as reduction in cell death at 100 uM measured after 24 hrs by MTT assay; assay type: cell-based
[4] = Stability of compound in human serum at 100 uM measured over 24 hrs by RP-HPLC analysis; assay type: ADME, cell-free
[5] = Inhibition of NLRP3 inflammasome activation in LPS/ATP-stimulated mouse N9 cells assessed as inhibition of IL-1beta mRNA expression by qRT-PCR analysis; assay type: cell-based
[6] = system: N9; experiment: Effect on TNF-alpha mRNA expression in LPS/ATP-stimulated mouse N9 cells at 1 to 100 uM by qRT-PCR analysis; assay type: functional, cell-based; details: dose 1-100 µM
[7] = system: N9; experiment: Inhibition of NLRP3 inflammasome activation mediated pyroptosis in LPS/ATP-stimulated mouse N9 cells assessed as reduction in number of PI-positive cells preincubated with compound and LPS for 4 hrs followed by ATP addition and measured after 24 hrs by calcein AM/PI staining based confocal imaging analysis; assay type: cell-based; details: dose 5-20 µM, time 28.0 hrs
[8] = system: N9; experiment: Inhibition of NLRP3 inflammasome activation mediated mitochondrial damage in LPS/ATP-stimulated mouse N9 cells assessed as normal tubular structure of mitochondria at 10 to 20 uM by […] staining based confocal microscopic analysis; details: dose 10-20 µM
[9] = system: N9; experiment: Inhibition of NLRP3 inflammasome activation in LPS/ATP-stimulated mouse N9 cells assessed as inhibition of ASC speck formation at 20 to 30 uM preincubated with LPS for 4 hrs followed by compound addition by 30 mins and measured after 45 mins of ATP stimulation by DAPI staining based immunofluorescence analysis; assay type: cell-based; details: dose 20-30 µM, time 75.0 min
[10] = Stability of compound in fetal bovine serum at 100 uM measured after 48 hrs by RP-HPLC analysis; assay type: ADME, cell-free, Bos taurus; details: cattle
[11] = system: N9; experiment: Inhibition of NLRP3 inflammasome activation in LPS/ATP-stimulated mouse N9 cells assessed as reduction in caspase-1 mRNA expression by measuring remaining activity at 20 uM by qRT-PCR analysis relative to control; assay type: cell-based
[12] = system: N9; experiment: Inhibition of NLRP3 inflammasome activation mediated ROS production in LPS/ATP-stimulated mouse N9 cells preincubated with LPS for 4 hrs followed by compound addition for 30 mins and measured after ATP stimulation for 1 hrs by DCFDA staining based flow cytometric analysis; assay type: cell-based; details: dose 10-30 µM, time 1.5 hrs

Apoptosis-associated speck-like protein containing a CARD, sequence (Q9ULZ3 whole entry): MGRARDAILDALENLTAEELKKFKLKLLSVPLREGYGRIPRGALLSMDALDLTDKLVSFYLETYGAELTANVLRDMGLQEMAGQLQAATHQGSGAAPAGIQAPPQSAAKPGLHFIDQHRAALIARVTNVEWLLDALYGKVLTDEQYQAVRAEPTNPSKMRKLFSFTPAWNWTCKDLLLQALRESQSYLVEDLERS

Kd [1]: 58 nM
Stability [4]: Stable
IC50 [5]: 2570 nM
Stability [10]: Stable
SMILES: CC[C@H](C)[C@H](NC(=O)[C@H](C)NC(=O)[C@H](C)NC(=O)[C@H](CC(C)C)NC(=O)[C@@H](NC(=O)[C@H](Cc1c[nH]c2ccccc12)NC(=O)[C@@H](N)C(C)C)[C@@H](C)CC)C(=O)N[C@@H](CC(N)=O)C(=O)N[C@@H](CCCNC(=N)N)C(=O)N[C@@H](CCCNC(=N)N)C(=O)O (H-VWILAAINRR-OH)
inhibition [2]: Dose-dependent-effect
inhibition [3]: Active
Activity [6]: inactive
inhibition [7]: Dose-dependent-effect
inhibition [8]: Active
inhibition [9]: Active
Activity [11]: 15%
inhibition [12]: Dose-dependent-effect
